This passage reports IC50 results from PubChem BioAssay AID493095 (Sanford-Burnham Center for Chemical Genomics, 2011).

The nature of the test: HIV fusion inhibitor analogs, peptide binding, SAR follow-up, biochemical, set 2, fluorescence quenching (AID 493095). Particulars: cell-free peptide binding, 30 min.
By IC50 is commonly meant the concentration that gives 50% inhibition. In the case of `CCOC(=O)C1=C(C)N=c2s/c(=C\c3ccc(OCC(=O)O)cc3)c(=O)n2C1c1ccc(Cl)cc1` (centres undefined), the IC50 is 8.89 µM. Under `CS(=O)(=O)C1=NSC2=NC(=O)/C(=C\c3cccn3-c3ccc(Cl)c(Cl)c3)C(=N)N21` stands 6.55 µM. Under `O=C(O)CCCN1C(=O)/C(=C/c2cc3ccccc3o2)SC1=S` stands 10.8 µM.

`CC1=C(C(=O)OC(C)C)C(c2ccc(Cl)cc2)n2c(s/c(=C\c3ccc(OCC(=O)O)cc3)c2=O)=N1` (centres undefined): the IC50 is 19.1 µM. For `O=C(O)CCCN1C(=O)/C(=C\c2ccc(-c3ccc(F)cc3)o2)SC1=S` the value was 11.1 µM. `CS(=O)(=O)C1=NSC2=NC(=O)/C(=C\c3cccn3-c3ccc(F)cc3)C(=N)N21`: the IC50 was 9.41 µM. For `CCOC(=O)C1=C(C)N=c2sc(=Cc3ccc(OCC(=O)O)cc3)c(=O)n2C1c1ccccc1` (centres undefined) the value was 19.6 µM. Under `CS(=O)(=O)C1=NSC2=NC(=O)/C(=C\c3cccn3-c3cc(Cl)cc(Cl)c3)C(=N)N21` stands 30 µM. Under `CCOC(=O)C1=C(C)N=c2sc(=Cc3ccc(OCC(=O)O)cc3)c(=O)n2C1c1ccc(OC)cc1OC` (centres undefined) stands 20.2 µM; under `CCOC(=O)C1=C(C)N=c2sc(=Cc3ccc(OCC(=O)O)cc3)c(=O)n2C1c1cc(OC)c(OC)c(OC)c1` (centres undefined), 7.82 µM; under `O=C(O)CCCN1C(=O)/C(=C\c2ccc(-c3ccc(Br)cc3)o2)SC1=S`, 3.26 µM. Turning to `Cc1ccc(-n2cccc2/C=C2/C(=N)N3C(=NC2=O)SN=C3S(C)(=O)=O)cc1C`, the IC50 was 5.98 µM. Under `COc1ccc(CCn2c(O)cc3nn(-c4nc5ccccc5s4)c(=O)c-3c2C)cc1` stands 5.6 µM; under `O=C(O)CCCN1C(=O)/C(=C\c2ccc(-c3cccc(Cl)c3)o2)SC1=S`, 4.27 µM. For `O=C(O)c1ccc(C2Nc3ccc(S(=O)(=O)Nc4cc(Cl)ccc4Cl)cc3C3C=CCC32)cc1` (centres undefined) the value was 48.2 µM; for `O=C(O)c1ccc([C@@H]2Nc3ccc(S(=O)(=O)Nc4cccc5ccccc45)cc3[C@@H]3C=CC[C@@H]32)cc1`, 17.3 µM. For `CCOC(=O)C1=C(C)N=c2sc(=Cc3ccc(OCC(=O)O)cc3)c(=O)n2C1c1ccc(F)cc1` (centres undefined) the value was 6.28 µM; for `CCOC(=O)C1=C(c2ccccc2)N=c2s/c(=C\c3ccc(OCC(=O)O)cc3)c(=O)n2C1c1cccc(OC)c1` (centres undefined), 7.41 µM; for `CS(=O)(=O)C1=NSC2=NC(=O)/C(=C\c3cccn3-c3cccc(C(F)(F)F)c3)C(=N)N21`, 5.8 µM.

In the case of `COc1ccc(-c2ccc(/C=C3\SC(=S)N(CCCC(=O)O)C3=O)o2)cc1`, the IC50 is 12.9 µM. Under `O=C(O)c1ccc(C[n+]2c(-c3ccc([N+](=O)[O-])cc3)csc2Nc2ccccc2)cc1` stands 15.4 µM; under `CCOC(=O)C1=C(C)N=c2s/c(=C\c3ccc(OCC(=O)O)cc3)c(=O)n2C1c1ccc(OC)c(OCC)c1` (centres undefined), 22.9 µM; under `Cc1ccc(-n2cccc2/C=C2/C(=N)N3C(=NC2=O)SN=C3S(C)(=O)=O)cc1`, 6.24 µM. For `Cc1c2c(=O)n(-c3nc4ccccc4s3)nc-2cc(O)n1Cc1ccccc1Cl` the value was 7.69 µM; for `CS(=O)(=O)C1=NSC2=NC(=O)/C(=C\c3cccn3-c3cccc(F)c3)C(=N)N21`, 3.71 µM. For `O=C(O)CCCN1C(=O)/C(=C/c2ccc(-c3cccc(C(F)(F)F)c3)o2)SC1=S` the value was 5.43 µM; for `CS(=O)(=O)C1=NSC2=NC(=O)/C(=C\c3cccn3-c3ccc(Br)cc3)C(=N)N21`, 5.36 µM; for `COc1ccccc1NS(=O)(=O)c1ccc2c(c1)C1C=CCC1C(c1ccc(C(=O)O)cc1)N2` (centres undefined), 69.1 µM. Regarding `CCOc1ccc(-n2cccc2/C=C2/C(=N)N3C(=NC2=O)SN=C3S(C)(=O)=O)cc1`, the IC50 is 40.3 µM. For `O=C(O)CCCN1C(=O)/C(=C/c2ccc(-c3ccc(Cl)c(Cl)c3)o2)SC1=S` the value was 28.9 µM; for `O=C(O)CCC(C(=O)O)N1C(=O)/C(=C\c2ccco2)SC1=S` (centres undefined), 1.38 µM. For `CS(=O)(=O)C1=NSC2=NC(=O)/C(=C\c3cccn3-c3ccc(Cl)cc3)C(=N)N21` the value was 25.2 µM. For `COc1ccc(-n2cccc2/C=C2/C(=N)N3C(=NC2=O)SN=C3S(C)(=O)=O)cc1Cl` the value was 12.2 µM; for `COc1cccc(C2C(C(=O)Nc3ccccc3)=C(C)N=c3sc(=Cc4ccc(OCC(=O)O)cc4)c(=O)n32)c1` (centres undefined), 8.05 µM.

As for `O=C(O)CCCN1C(=O)/C(=C\c2ccc(-c3ccc(Cl)cc3)o2)SC1=S`, the IC50 is 44.8 µM. For `CCOC(=O)C1=C(C)N=c2sc(=Cc3ccc(OCC(=O)O)cc3)c(=O)n2C1c1ccccc1OC` (centres undefined) the value was 31.6 µM; for `CCc1ccc(-n2cccc2/C=C2/C(=N)N3C(=NC2=O)SN=C3S(C)(=O)=O)cc1`, 53 µM; for `CS(=O)(=O)C1=NSC2=NC(=O)/C(=C\c3cccn3-c3cccc(Cl)c3)C(=N)N21`, 9.16 µM. Regarding `COc1cccc(-n2cccc2/C=C2/C(=N)N3C(=NC2=O)SN=C3S(C)(=O)=O)c1`, the IC50 is 6.31 µM.
